A short description of one data set: Aqueous solubility. It counts as physicochemical.
The test system of data set [1] is MHV-A59. Description: Mouse MHV efficacy study. It counts as in vivo, BALB/c mice. Conditions: for viral titers (MHV-A59 RNA copies) in the liver (in words): mouse, in vivo.
A further data set has as its system FCoV. Conditions: intraperitoneal injection, FCoV-afflicted cats; cited from earlier work.
Data set [2] has as its system MHV-A59. Description: In vitro anti-MHV-A59 activity assay in L929 cells. The class given is cell-based, murine coronavirus mouse hepatitis virus A-59. Conditions: for potency relative to GS-441524 (MHV-A59 EC50), fold more potent: vs GS-441524 EC50 = 10.01 μM; for effect on cellular replication of MHV-A59 (in words): up to 200 μM.
The mark [3] stands for this setting: ATV041 10, 50, 200 mg/kg oral QD, 3 dpi.

With `N#C[C@@]1(c2ccc3c(N)ncnn23)O[C@H](COC(=O)Cc2ccccc2Nc2c(Cl)cccc2Cl)[C@@H](O)[C@H]1O` [ATV042, ((2R,3S,4R,5R)-5-(4-aminopyrrolo[2,1-f][1,2,4]triazin-7-yl)-5-cyano-3,4-dihydroxytetrahydrofuran-2-yl)methyl 2-(2-((2,6-dichlorophenyl)amino)phenyl)acetate], in the data set “Aqueous solubility”, the “aqueous solubility (in words)” value was “hardly soluble”.

As for `CC(C(=O)OC[C@H]1O[C@@](C#N)(c2ccc3c(N)ncnn23)[C@H](O)[C@@H]1O)c1cccc(C(=O)c2ccccc2)c1` (stereo partly drawn) [ATV040, ((2R,3S,4R,5R)-5-(4-aminopyrrolo[2,1-f][1,2,4]triazin-7-yl)-5-cyano-3,4-dihydroxytetrahydrofuran-2-yl)methyl 2-(3-benzoylphenyl)propanoate], in “Aqueous solubility”, the “aqueous solubility (in words)” value was “significantly improved the solubility”.

As to `COc1ccc2cc([C@H](C)C(=O)OC[C@H]3O[C@@](C#N)(c4ccc5c(N)ncnn45)[C@H](O)[C@@H]3O)ccc2c1` [ATV039, ((2R,3S,4R,5R)-5-(4-aminopyrrolo[2,1-f][1,2,4]triazin-7-yl)-5-cyano-3,4-dihydroxytetrahydrofuran-2-yl)methyl (S)-2-(6-methoxynaphthalen-2-yl)propanoate], the “aqueous solubility (in words)” value in the data set “Aqueous solubility” is reported as “slightly better solubility”.

Regarding `COc1ccc2c(c1)c(CC(=O)OC[C@H]1O[C@@](C#N)(c3ccc4c(N)ncnn34)[C@H](O)[C@@H]1O)c(C)n2C(=O)c1ccc(Cl)cc1` [ATV043, ((2R,3S,4R,5R)-5-(4-aminopyrrolo[2,1-f][1,2,4]triazin-7-yl)-5-cyano-3,4-dihydroxytetrahydrofuran-2-yl)methyl 2-(1-(4-chlorobenzoyl)-5-methoxy-2-methyl-1H-indol-3-yl)acetate], the “aqueous solubility (in words)” value in “Aqueous solubility” is recorded as “hardly soluble”.

For the compound `N#C[C@@]1(c2ccc3c(N)ncnn23)O[C@H](CO)[C@@H](O)[C@H]1O` [GS-441524, 1′-CN-4-aza-7,9-dideazaadenosine C-nucleoside, reference compound], the “viral titer / viral replication in the lungs (in words)” value in the data set on MHV-A59 [1] (100 mg/kg GS-441524 (B1) or 200 mg/kg ATV041 (C3), same molar concentration, oral QD, 3 dpi) is “about one order of magnitude”. In addition, the “lung histopathology (H&E) (in words)” value in the data set on MHV-A59 [1] (3 dpi) is on record as “did not demonstrate protect effects”. Besides, the “viral titers (MHV-A59 RNA copies) in the liver (in words)” value in the data set with MHV-A59 [1] is “below the detection limit”. Besides, the cure rate result with FCoV was “up to 96%”.

The compound `CC(C)Cc1ccc(C(C)C(=O)OC[C@H]2O[C@@](C#N)(c3ccc4c(N)ncnn34)[C@H](O)[C@@H]2O)cc1` (stereo partly drawn) [ATV041, ((2R,3S,4R,5R)-5-(4-aminopyrrolo[2,1-f][1,2,4]triazin-7-yl)-5-cyano-3,4-dihydroxytetrahydrofuran-2-yl)methyl 2-(4-isobutylphenyl)propanoate] had a survival rate with MHV-A59 [1] (10 mg/kg oral QD, 23-day observation) of 100%. Further, the “pro-inflammatory factors in the lungs (in words)” value in the data set with MHV-A59 [1] (200 mg/kg oral QD, 3 dpi) is “considerably reduced to a level similar to the mock-infected mice”. In the data set on MHV-A59 [1] (3 dpi), the “liver histopathology (H&E) (in words)” value is given as “obvious remission effects” and the “lung histopathology (H&E) (in words)” value is “alleviated symptoms”. Besides, in the data set on MHV-A59 [1] (setting [3]), the “dose dependence of inhibition of viral replication in the liver (in words)” value is recorded as “dose-dependently inhibited” and the “dose dependence of inhibition of viral replication in the lungs (in words)” value is listed as “dose-dependent inhibition”. Moreover, the “viral titers (MHV-A59 RNA copies) in the liver (in words)” value in the data set with MHV-A59 [1] is listed as “below the detection limit”. In addition, the “plasma ALT and AST (in words)” value in the data set with MHV-A59 [1] (serum chemical analysis, 3 dpi) is “significantly reduced”. The “potency relative to GS-441524 (MHV-A59 EC50), fold more potent” value in the data set on MHV-A59 [2] is listed as “about 8 fold”. Besides, in “Aqueous solubility”, the “aqueous solubility (in words)” value is on record as “slightly better solubility”.

For `CC(C)Cc1ccc(C(C)C(=O)O)cc1` (centres unmarked) [Ibuprofen, reference compound], in the data set on MHV-A59 [1] (ibuprofen 70 mg/kg oral QD dosed alone, 3 dpi), the “antiviral effect in lung and liver (in words)” value was “did not show an antiviral effect”. For the same compound, the “effect on cellular replication of MHV-A59 (in words)” value in the data set on MHV-A59 [2] (Fig. S1) is “did not affect”; in the data set on MHV-A59 [2] (Fig. S1, listed as ibuprofen), “did not inhibit”.

For `CC(C(=O)OC[C@H]1O[C@@](C#N)(c2ccc3c(N)ncnn23)[C@H](O)[C@@H]1O)c1cccc(Oc2ccccc2)c1` (stereo partly drawn) [ATV038, ((2R,3S,4R,5R)-5-(4-aminopyrrolo[2,1-f][1,2,4]triazin-7-yl)-5-cyano-3,4-dihydroxytetrahydrofuran-2-yl)methyl 2-(3-phenoxyphenyl)propanoate], the “potency relative to GS-441524 (MHV-A59 EC50), fold more potent” value with MHV-A59 [2] is “about 8 fold”. In addition, the “aqueous solubility (in words)” value in “Aqueous solubility” is “slightly better solubility”.

These data come from article PMC9830933 (European Journal of Medicinal Chemistry, 2023).
